Earlier results on one compound are cited in patent US20200069618A1, “COMPOSITIONS HAVING AN AGENT AND AN ENHANCER THEREOF, METHODS OF USE, AND DELIVERY SYSTEMS” (priority 2018, published 2020).

Data set [1] concerns rats. Conditions: intercerebroventricular administration.
The subject of data set [2] is rats. As to conditions: administration into the basal forebrain.

With `CCCCC/C=C\C/C=C\C/C=C\C/C=C\CCCC(=O)NCCO` [anandamide, Anandamide], in the data set on rats [1], the “slow-wave sleep and REM sleep” value was “increase slow-wave sleep and REM sleep”; the wakefulness result was “decrease wakefulness”. Further, the levels of adenosine result with rats [2] is reported as “increase levels of adenosine”.
